{
  "source": "paper PMC5942844",
  "about": "“Identification and characterization of the Fasciola hepatica sodium- and chloride-dependent taurine transporter” (PLoS Neglected Tropical Diseases, 2018)",
  "molecules": {"B1": {"name": "F. hepatica taurine transporter (FhTauT) (Fasciola hepatica) (protein)", "chain": "MRQEFSFPSKSRTELAATSSIHPVFEVKDECSIIPVSSSLANKKEVEKSPREQWKRRFDFLLSLVGLSVGLGNIWRFPYLCYKHGGGAFLIPYFISIFAAGLPVFLLEVTVGQITAQGGIAAWNICPLFRGIGFASLVTNFCLDCYYNVILAWALYYLFSSFTSTLPWTLCGQWWNTPQCDNGSGLINGTVATDPAAEFWENRVLGLSKGIEHLGPVRWDLALCLLLAWIIVFLCIFKGIKTSGKVMYVTATSPYIFMFILLVRAATLEGAIDGIRYYMVPDWSKLADVQMWADAGAQIFFSYSISLGTLTALGSYNSFHQNSFRDCLAYATVNTLTSLLAGFIIFATLGHMALKADLSIDQVAESGPGLAFVIYPKAIGMMKASPFWSVCFFLMLLLLGIDSQFAGVEGFITSITDFYPRLVLRPKLRILFVGSVCLACFLVGLTMVTEGGMYLFQLFNHYAGSRIILLTAFFECIAAGYDDGAKRIGGHMKKMHGWGLGVLPQVFWCVISPVFTLGLFIVSVVVHEEVSYERASRTEVYHFPQWSIIFGWLLAACSVIMIPIIMVFELLRTPGTFSQRLRTLSHHKLTGSQLMRLQGRKTENDSSASTDSSNSRRSKNGLTNVETQTKVVAKRFLNEESTSNNLN"}, "B2": {"name": "human taurine transporter (HsTauT) (Homo sapiens) (protein)", "chain": "MATKEKLQCLKDFHKDILKPSPGKSPGTRPEDEAEGKPPQREKWSSKIDFVLSVAGGFVGLGNVWRFPYLCYKNGGGAFLIPYFIFLFGSGLPVFFLEIIIGQYTSEGGITCWEKICPLFSGIGYASVVIVSLLNVYYIVILAWATYYLFQSFQKELPWAHCNHSWNTPHCMEDTMRKNKSVWITISSTNFTSPVIEFWERNVLSLSPGIDHPGSLKWDLALCLLLVWLVCFFCIWKGVRSTGKVVYFTATFPFAMLLVLLVRGLTLPGAGAGIKFYLYPDITRLEDPQVWIDAGTQIFFSYAICLGAMTSLGSYNKYKYNSYRDCMLLGCLNSGTSFVSGFAIFSILGFMAQEQGVDIADVAESGPGLAFIAYPKAVTMMPLPTFWSILFFIMLLLLGLDSQFVEVEGQITSLVDLYPSFLRKGYRREIFIAFVCSISYLLGLTMVTEGGMYVFQLFDYYAASGVCLLWVAFFECFVIAWIYGGDNLYDGIEDMIGYRPGPWMKYSWAVITPVLCVGCFIFSLVKYVPLTYNKTYVYPNWAIGLGWSLALSSMLCVPLVIVIRLCQTEGPFLVRVKYLLTPREPNRWAVEREGATPYNSRTVMNGALVKPTHIIVETMM"}},
  "key": {"adult F. hepatica": {"test_system": "adult F. hepatica", "assay_type": "cell-based", "conditions": "for time all flukes alive and motile: Hédon-Fleig medium; for survival of flukes: 4 h", "protocol": "Fig 8 Survival of adult F. hepatica in bile acid-containing medium in the presence and absence of taurine. A: Adult flukes (12 flukes/condition in individual wells) were incubated at 37°C and 5% CO2 in a humidified atmosphere in Hédon Feig medium in the absence (control, closed circles) or presence of 50 μM taurine (closed circle), of 2 mM GES (GES, closed triangle) or of bile acids (closed triangle, 5 mM cholic acid, 1.5 mM deoxycholic acid and 0.5 mM chenodeoxycholic acid). The number of dead flukes was recorded at the indicated time points. B: Adult flukes were incubated at 37°C and 5% CO2 in a humidified atmosphere in Hédon Feig medium in the absence (control) or presence of bile acids (5 mM cholic acid, 1.5 mM deoxycholic acid and 0.5 mM chenodeoxycholic acid). Where indicated, the medium contained, in addition, 50 μM taurine or the combination of 50 μM taurine and 2 mM GES (GES) for 4h. The number of dead flukes was recorded at the end of the incubation period. The data are from three independent experiments with 11 to 12 flukes/condition. […] Thus, after Bonferroni correction for multiple testing (with α≤0.016), taurine afforded a statistically significant protection against bile acids.\nF. hepatica was isolated from the bile ducts of cows slaughtered at Alpenrind GmbH (Salzburg, Austria). Flukes were kept in modified Hedon Fleig`s solution at 37°C and 5% CO2 in a humidified atmosphere. Before the experiment, flukes were maintained at 37°C for three days after extraction to clear them from bile acids. Living flukes (judged by observing movement after gently tapping them with metal forceps) were transferred into flasks containing either Hedon Fleig`s Solution alone or Hedon Fleig`s Solution supplemented with combinations of bile acids (5 mM cholic acid (CA), 1.5 mM deoxycholic acid (DCA) and 0.2 mM chenodeoxycholic acid (CDC)), 50 μM taurine and 2 mM guanidinoethyl sulfonate (GES). Survival of flukes was determined again after four hours of treatment."}, "[1]": {"target": "T1, human taurine transporter (HsTauT) (Homo sapiens, UniProt P31641)", "T1 sequence (P31641 1-620)": "B2 chain", "test": "[3H]taurine uptake by HEK293 cells stably expressing the human taurine transporter", "conditions": "for EC50: 0.1 μM [3H]taurine; for IC50: IC50 of unlabeled taurine for [3H]taurine uptake", "protocol": "(§1) Human embryonic kidney-293 (HEK293 (ATCC CRL-1573, LGC standards Wesel, Germany)) cells, were grown in Dulbecco`s modified Eagle medium (DMEM) supplemented with 10% fetal bovine serum (FCS Nuaille, France), 100 units/ml penicillin and 100 μg/ml streptomycin at 37°C and with 5% CO2 in a humidified incubator. Cells were transfected with plasmids encoding fluorescently tagged or untagged versions of F. hepatica (FhTauT) and H. sapiens (HsTauT) taurine transporter using Jet Prime transfection reagent (Polyplus-transfection, France). To generate monoclonal cell lines stably expressing the transporters, transfected cells were subjected to and selected with the concentration of 0.2 mg/ml geneticin (G418) for 10 days. Surviving cells forming colonies were separated and analyzed for membrane localization of transporters and transport of taurine. After the selection process cells were kept at 50 μg/ml G418 to keep the selection pressure.\n(§2) For saturation uptake experiments, cells were plated the day before the experiment at a density of about 50,000 cells/well onto poly (D-lysine)-coated 48-well culture plates (CytoOne, USA). On the day of the experiment, cells were washed with prewarmed Krebs-HEPES buffer twice (KHB) (120 mM NaCl, 3 mM KCl, 2 mM CaCl2, 2 mM MgCl2, 20 mM glucose, 10 mM HEPES, pH 7.3). Then, cells were incubated in KHB containing tracer amounts (0.1 μM) of [^3H]taurine, (19.1 Ci/mmol) (Perkin Elmer, USA) together with increasing concentrations of non-labeled taurine 10 min. The reaction was terminated after 10 minutes by removing the medium followed by rapid rinsing of cells with ice-cold assay buffer. Subsequently, cells were lysed with 0.5 ml of 1% sodium dodecyl sulfate (SDS) and transferred into scintillation vials for liquid scintillation counting. Non-specific uptake was determined by incubating cells in the presence of the blocker β-alanine (100 mM) before and during the experiment and subtracted from uptake values. Data were fit to a Michaelis-Menten equation.\n(§3) Chloride-free KHB was prepared to examine the chloride dependence of both, FhTauT and HsTauT using acetate salts instead of chloride salts. Likewise, NaCl was replaced by choline chloride to examine the sodium requirement. Uptake experiments were performed as described above using 0.1 μM [^3H]taurine in sodium- and chloride-free modified KHB, respectively, mixed with increasing amounts of NaCl containing KHB thereby varying Na^+ and respectively Cl^- concentration from 0–120 mM. The inhibition experiments were performed in analogous manner with 0.1 μM [^3H]taurine and the logarithmically spaced concentrations of inhibitors."}, "[2]": {"target": "T2, F. hepatica taurine transporter (FhTauT) (Fasciola hepatica, UniProt A0A2R4LGM2)", "T2 sequence (A0A2R4LGM2 1-647)": "B1 chain", "test": "cell-based", "conditions": "for EC50: 0.1 μM [3H]taurine; for IC50: IC50 of unlabeled taurine for [3H]taurine uptake; for inhibition of the transporter (taurine uptake): inhibitors of GABA uptake or GABA degradation", "protocol": "as §1, §2, §3"}, "[3]": {"substrate": "NCCS(=O)(=O)O", "test": "cells, lysate or membranes", "conditions": "other: 10 min uptake, HEK293 cells; pH 7.3; 37.0 °C"}, "[4]": {"conditions": "HEK293, read-out: residual [3H]taurine uptake"}, "[5]": {"conditions": "read-out: EC50 of Na+ for half-maximum stimulation of transport, sodium replaced with choline"}, "[6]": {"conditions": "read-out: EC50 of chloride for substrate uptake (apparent affinity), chloride replaced with acetate"}, "[7]": {"conditions": "read-out: EC50 of chloride for substrate uptake (apparent affinity), chloride replaced with acetate, listed as Cl^-"}},
  "note": "Where two headings read alike, the source gives them in different places.",
  "data": [
    {"molecule": "NC(N)=NCCS(=O)(=O)O", "note": "[GES, guanidinoethyl sulfonate]", "values": [
      {"measurement": "time all flukes alive and motile", "setting": "adult F. hepatica; 2 mM GES alone", "result": "at least 6 h"},
      {"measurement": "survival of flukes", "setting": "adult F. hepatica; bile acids plus 50 μM taurine plus 2 mM GES", "result": 44, "unit": "%"},
      {"measurement": "mode of inhibition of taurine uptake", "setting": "[1]; Dixon plot, parallel lines", "result": "competitive inhibition"},
      {"measurement": "mode of inhibition of taurine uptake", "setting": "[2]; Dixon plot, intersecting lines", "result": "non-competitive inhibitor"},
      {"measurement": "remaining activity at 1000 µM", "setting": "[2]; [4]", "result": "~75", "unit": "%"},
      {"measurement": "remaining activity at 3000 µM", "setting": "[2]; [4]", "result": "~40", "unit": "%"},
      {"measurement": "affinity of F. hepatica transporter relative to human transporter", "setting": "[2]; comparison of residual uptake, Fig 6A vs 6C", "result": "about ten-fold lower"}
    ]},
    {"molecule": "[Na+]", "note": "[Na^+]", "values": [
      {"measurement": "EC50", "setting": "[1]; [5]", "result": "56.5 ± 7.1", "unit": "mM"},
      {"measurement": "Hill coefficient of sodium saturation curve", "setting": "[1]; sodium replaced with choline", "result": "2.3±0.1"},
      {"measurement": "EC50", "setting": "[2]; [5]", "result": "51.4 ± 6", "unit": "mM"},
      {"measurement": "Hill coefficient of sodium saturation curve", "setting": "[2]; sodium replaced with choline", "result": "1.6±0.1"}
    ]},
    {"molecule": "Cl", "note": "[chloride]", "values": [
      {"measurement": "EC50", "setting": "[1]; [6]", "result": "54.8 ± 6.9", "unit": "mM"},
      {"measurement": "EC50", "setting": "[1]; [7]", "result": "55 ± 7", "unit": "mM"},
      {"measurement": "EC50", "setting": "[2]; [6]", "result": "13.9 ± 3.1", "unit": "mM"},
      {"measurement": "EC50", "setting": "[2]; [7]", "result": "14 ± 3", "unit": "mM"}
    ]},
    {"molecule": "NCCS(=O)(=O)O", "note": "[taurine, 2-aminoethanesulfonic acid]", "values": [
      {"measurement": "time all flukes alive and motile", "setting": "adult F. hepatica; 50 μM taurine alone", "result": "at least 6 h"},
      {"measurement": "survival of flukes", "setting": "adult F. hepatica; bile acids plus 50 μM taurine", "result": "about 80%"},
      {"measurement": "IC50", "setting": "[1]; absence of GES", "result": "0.0412 ± 0.0082", "unit": "mM"},
      {"measurement": "IC50", "setting": "[1]; presence of 0.1 mM GES", "result": "0.0521 ± 0.0095", "unit": "mM"},
      {"measurement": "IC50", "setting": "[1]; presence of 0.3 mM GES", "result": "0.0989 ± 0.0201", "unit": "mM"},
      {"measurement": "maximum velocity of uptake", "setting": "[1]; [3H]taurine, HEK293 cells", "result": "971.0 ± 60.3", "unit": "pmol*10^−6 cells*min^-1"},
      {"measurement": "IC50", "setting": "[2]; absence of GES", "result": "0.0117 ± 0.0041", "unit": "mM"},
      {"measurement": "IC50", "setting": "[2]; presence of 1 mM GES", "result": "0.0187 ± 0.0067", "unit": "mM"},
      {"measurement": "IC50", "setting": "[2]; presence of 3 mM GES", "result": "0.016 ± 0.0042", "unit": "mM"},
      {"measurement": "maximum velocity of uptake", "setting": "[2]; [3H]taurine, HEK293 cells", "result": "178 ± 2", "unit": "pmol*10^−6 cells*min^-1"},
      {"measurement": "[3H]taurine accumulation relative to untransfected control cells", "setting": "[2]; transfected vs untransfected HEK293 cells", "result": "about 10 fold"}
    ]},
    {"molecule": "Cc1ccsc1C(=CCCN1CCC[C@@H](C(=O)O)C1)c1sccc1C", "note": "[tiagabine]", "values": [
      {"measurement": "inhibition of the transporter (taurine uptake)", "setting": "[2]", "result": "failed to inhibit"}
    ]},
    {"molecule": "C=CC(N)CCC(=O)O", "note": "(stereo not drawn) [vigabatrin]", "values": [
      {"measurement": "inhibition of the transporter (taurine uptake)", "setting": "[2]", "result": "failed to inhibit"}
    ]},
    {"molecule": "B1", "values": [
      {"measurement": "Km", "setting": "[3]", "result": "12.0 ± 0.5", "unit": "µM"}
    ]},
    {"molecule": "B2", "values": [
      {"measurement": "Km", "setting": "[3]", "result": "41.0 ± 10.4", "unit": "µM"}
    ]}
  ]
}
